Measurements: ChEMBL document CHEMBL3885861, “Open TG-GATES”

Species on record: Rattus norvegicus
Experiment: Open TG-GATES - Regimen: Single
Type: toxicity, organism-based, Sprague-Dawley
Parameters: regimen Single, gender Male, age 6 weeks
Conditions: in vivo, po, 50 mg/kg, route gavage, dose level High; for ALT / AST / BUN / CRE / Ca / Cl / DBIL / GLC / IP / K / LDH / Na / PL / RALB / TBIL / TC / TG / TP / gamma-GTP / A/G / ALP: tissue Plasma; for APTT / Bas / Eos / Fbg / Hb / Ht / Lym / MCH / MCHC / MCV / Mono / Neu / PT / Plat / RBC / Ret / WBC: tissue Blood; for KIDNEY_L / KIDNEY_R / KIDNEY_TOTAL: tissue Kidney; for LIVER: tissue Liver

With `COc1ccc2c(c1)c(CC(=O)O)c(C)n2C(=O)c1ccc(Cl)cc1` [INDOMETHACIN] as the molecule, how does the ALT (3 h) read?
The ALT was 41.2 IU/L.

And the AST (3 h)?
The AST was 75 IU/L.

And the BUN (3 h)?
The BUN was 11.4 mg/dL.

What about the CRE (3 h) of the same molecule?
Its CRE is 0.4 mg/dL.

And the Ca (3 h)?
The Ca was 10.4 mg/dL.

And the Cl (3 h)?
Its Cl is 102 meq/L.

And the DBIL (3 h)?
The DBIL was 0.072 mg/dL.

And the GLC (3 h)?
The GLC was 217.4 mg/dL.

What about the IP (3 h) of the same molecule?
The IP was 10.5 mg/dL.

What about the K (3 h) of the same molecule?
Its K is 3.9 meq/L.

And the LDH (3 h)?
The LDH was 221 IU/L.

What about the Na (3 h) of the same molecule?
Its Na is 140.4 meq/L.

What about the PL (3 h) of the same molecule?
Its PL is 125.4 mg/dL.

And the RALB (3 h)?
The RALB was 3.3 g/dL.

What about the TBIL (3 h) of the same molecule?
Its TBIL is 0.1 mg/dL.

And the TC (3 h)?
Its TC is 69.6 mg/dL.

And the TG (3 h)?
Its TG is 43.4 mg/dL.

What about the TP (3 h) of the same molecule?
The TP was 5.4 g/dL.

And the gamma-GTP (3 h)?
Its gamma-GTP is 1 IU/L.

And the TERMINAL_BW (6 h)?
Its TERMINAL_BW is 223.2 g.

What about the APTT (6 h) of the same molecule?
Its APTT is 18.3 s.

What about the Bas (6 h) of the same molecule?
The Bas was 0%.

And the Eos (6 h)?
Its Eos is 0.4%.

What about the Fbg (6 h) of the same molecule?
Its Fbg is 214.4 mg/dL.

What about the Hb (6 h) of the same molecule?
The Hb was 13.7 g/dL.

And the Ht (6 h)?
Its Ht is 37.2%.

What about the Lym (6 h) of the same molecule?
The Lym was 64%.

What about the MCH (6 h) of the same molecule?
Its MCH is 22.4 pg.

And the MCHC (6 h)?
The MCHC was 36.9%.

What about the MCV (6 h) of the same molecule?
The MCV was 60.8 fL.

What about the Mono (6 h) of the same molecule?
Its Mono is 4.6%.

What about the Neu (6 h) of the same molecule?
Its Neu is 28.6%.

What about the PT (6 h) of the same molecule?
The PT was 12.3 s.

What about the Plat (6 h) of the same molecule?
The Plat was 113.8 x10_4/uL.

What about the RBC (6 h) of the same molecule?
Its RBC is 612.2 x10_4/ul.

And the Ret (6 h)?
The Ret was 8%.

What about the WBC (6 h) of the same molecule?
Its WBC is 123.9 x10_2/uL.

And the KIDNEY_L (6 h)?
Its KIDNEY_L is 0.9 g.

And the KIDNEY_R (6 h)?
Its KIDNEY_R is 0.9 g.

And the KIDNEY_TOTAL (6 h)?
Its KIDNEY_TOTAL is 1.9 g.

And the LIVER (6 h)?
The LIVER was 9.5 g.

What about the A/G (6 h) of the same molecule?
The A/G was 1.7.

What about the ALP (6 h) of the same molecule?
The ALP was 705.2 IU/L.

What about the ALT (6 h) of the same molecule?
The ALT was 35.4 IU/L.

And the AST (6 h)?
The AST was 73 IU/L.

And the BUN (6 h)?
The BUN was 12.8 mg/dL.

What about the CRE (6 h) of the same molecule?
Its CRE is 0.4 mg/dL.

And the Ca (6 h)?
The Ca was 10.6 mg/dL.

And the Cl (6 h)?
Its Cl is 102.6 meq/L.

What about the DBIL (6 h) of the same molecule?
The DBIL was 0.08 mg/dL.

And the GLC (6 h)?
Its GLC is 194.2 mg/dL.

And the IP (6 h)?
Its IP is 9.4 mg/dL.

What about the K (6 h) of the same molecule?
The K was 4.1 meq/L.

And the LDH (6 h)?
The LDH was 211.2 IU/L.

What about the Na (6 h) of the same molecule?
Its Na is 140.4 meq/L.

And the PL (6 h)?
The PL was 120.6 mg/dL.

What about the RALB (6 h) of the same molecule?
The RALB was 3.3 g/dL.

What about the TBIL (6 h) of the same molecule?
Its TBIL is 0.1 mg/dL.

And the TC (6 h)?
Its TC is 64.8 mg/dL.

What about the TG (6 h) of the same molecule?
The TG was 60.2 mg/dL.

And the TP (6 h)?
The TP was 5.3 g/dL.

What about the gamma-GTP (6 h) of the same molecule?
The gamma-GTP was 1 IU/L.

What about the TERMINAL_BW (9 h) of the same molecule?
Its TERMINAL_BW is 222.5 g.

What about the APTT (9 h) of the same molecule?
Its APTT is 19 s.

And the Bas (9 h)?
The Bas was 0%.

What about the Eos (9 h) of the same molecule?
The Eos was 0.2%.

And the Fbg (9 h)?
The Fbg was 215.2 mg/dL.

What about the Hb (9 h) of the same molecule?
The Hb was 13.7 g/dL.

What about the Ht (9 h) of the same molecule?
Its Ht is 36.9%.

And the Lym (9 h)?
Its Lym is 68.4%.

And the MCH (9 h)?
The MCH was 22.5 pg.

And the MCHC (9 h)?
Its MCHC is 37.2%.

What about the MCV (9 h) of the same molecule?
The MCV was 60.4 fL.

And the Mono (9 h)?
The Mono was 3.8%.

What about the Neu (9 h) of the same molecule?
The Neu was 24.8%.

And the PT (9 h)?
Its PT is 12.2 s.

And the Plat (9 h)?
Its Plat is 113.6 x10_4/uL.

And the RBC (9 h)?
Its RBC is 610.6 x10_4/ul.

What about the Ret (9 h) of the same molecule?
Its Ret is 8%.

What about the WBC (9 h) of the same molecule?
Its WBC is 107.9 x10_2/uL.

What about the KIDNEY_L (9 h) of the same molecule?
Its KIDNEY_L is 1 g.

What about the KIDNEY_R (9 h) of the same molecule?
Its KIDNEY_R is 1 g.

What about the KIDNEY_TOTAL (9 h) of the same molecule?
Its KIDNEY_TOTAL is 1.9 g.

And the LIVER (9 h)?
Its LIVER is 9 g.

What about the A/G (9 h) of the same molecule?
Its A/G is 1.7.

And the ALP (9 h)?
Its ALP is 738.8 IU/L.

What about the ALT (9 h) of the same molecule?
The ALT was 30.4 IU/L.

What about the AST (9 h) of the same molecule?
Its AST is 68.4 IU/L.

And the BUN (9 h)?
The BUN was 12.8 mg/dL.

And the CRE (9 h)?
The CRE was 0.4 mg/dL.

And the Ca (9 h)?
The Ca was 10.3 mg/dL.

And the Cl (9 h)?
The Cl was 103.8 meq/L.

What about the DBIL (9 h) of the same molecule?
The DBIL was 0.072 mg/dL.

And the GLC (9 h)?
Its GLC is 200.8 mg/dL.

And the IP (9 h)?
Its IP is 9.9 mg/dL.

And the K (9 h)?
Its K is 4.1 meq/L.

And the LDH (9 h)?
The LDH was 199 IU/L.

And the Na (9 h)?
The Na was 140.6 meq/L.

And the PL (9 h)?
The PL was 126.6 mg/dL.

And the RALB (9 h)?
The RALB was 3.3 g/dL.

What about the TBIL (9 h) of the same molecule?
The TBIL was 0.1 mg/dL.

What about the TC (9 h) of the same molecule?
Its TC is 69.2 mg/dL.

And the TG (9 h)?
The TG was 40.8 mg/dL.

What about the TP (9 h) of the same molecule?
Its TP is 5.2 g/dL.

What about the gamma-GTP (9 h) of the same molecule?
The gamma-GTP was 1.2 IU/L.

What about the TERMINAL_BW (24 h) of the same molecule?
The TERMINAL_BW was 230 g.

What about the APTT (24 h) of the same molecule?
Its APTT is 21.7 s.

What about the Bas (24 h) of the same molecule?
The Bas was 0%.

And the Eos (24 h)?
The Eos was 0%.

And the Fbg (24 h)?
Its Fbg is 260.8 mg/dL.

And the Hb (24 h)?
The Hb was 9.5 g/dL.

And the Ht (24 h)?
The Ht was 27%.

What about the Lym (24 h) of the same molecule?
The Lym was 61.4%.

And the MCH (24 h)?
Its MCH is 21.3 pg.

And the MCHC (24 h)?
The MCHC was 35.1%.

And the MCV (24 h)?
Its MCV is 60.6 fL.

And the Mono (24 h)?
The Mono was 2.8%.

And the Neu (24 h)?
Its Neu is 33.4%.

What about the PT (24 h) of the same molecule?
The PT was 12.7 s.

What about the Plat (24 h) of the same molecule?
Its Plat is 67.9 x10_4/uL.

And the RBC (24 h)?
The RBC was 448.8 x10_4/ul.

What about the Ret (24 h) of the same molecule?
Its Ret is 8.4%.

And the WBC (24 h)?
Its WBC is 122.6 x10_2/uL.

And the KIDNEY_L (24 h)?
Its KIDNEY_L is 1 g.

What about the KIDNEY_R (24 h) of the same molecule?
The KIDNEY_R was 1 g.

And the KIDNEY_TOTAL (24 h)?
The KIDNEY_TOTAL was 2 g.

What about the LIVER (24 h) of the same molecule?
The LIVER was 10.4 g.

And the A/G (24 h)?
Its A/G is 1.2.

What about the ALP (24 h) of the same molecule?
Its ALP is 484.2 IU/L.

What about the ALT (24 h) of the same molecule?
The ALT was 25.2 IU/L.

And the AST (24 h)?
Its AST is 48 IU/L.

What about the BUN (24 h) of the same molecule?
The BUN was 21.6 mg/dL.

And the CRE (24 h)?
The CRE was 0.4 mg/dL.

And the Ca (24 h)?
Its Ca is 9.4 mg/dL.

And the Cl (24 h)?
The Cl was 106.2 meq/L.

And the DBIL (24 h)?
The DBIL was 0.056 mg/dL.

And the GLC (24 h)?
The GLC was 167.8 mg/dL.

And the IP (24 h)?
Its IP is 8.6 mg/dL.

And the K (24 h)?
Its K is 4.2 meq/L.

What about the LDH (24 h) of the same molecule?
The LDH was 145.2 IU/L.

And the Na (24 h)?
Its Na is 141.2 meq/L.

What about the PL (24 h) of the same molecule?
Its PL is 114 mg/dL.

What about the RALB (24 h) of the same molecule?
The RALB was 1.9 g/dL.

What about the TBIL (24 h) of the same molecule?
Its TBIL is 0.096 mg/dL.

What about the TC (24 h) of the same molecule?
Its TC is 60.4 mg/dL.

And the TG (24 h)?
Its TG is 122.8 mg/dL.

What about the TP (24 h) of the same molecule?
The TP was 3.5 g/dL.

And the gamma-GTP (24 h)?
The gamma-GTP was 1 IU/L.
